In patent US20250013155A1, “MICROFLUIDIC POROUS MEMBRANE ELECTRICAL CELL-SUBSTRATE IMPEDANCE SENSING” (THE GOVERNING COUNCIL OF THE UNIVERSITY OF TORONTO, priority 2023, published 2025):

Assays:
[1] = tested on: confluent monolayer of HUVECs; experiment: PM-ECIS resistance (4 kHz) response to EGTA and thrombin barrier disruption, 250/500/750 μm electrodes; type: cell-based, human; conditions: all electrode sizes
Source text: The PM-ECIS devices were connected to a 24-channel multiplexer, which in turn connected to a phase-sensitive lock-in amplifier (LIA) and computer (FIG. 9D), The overall circuit for the ECIS system follows the set up described by Giaever and Keese. The LIA acts to both generate an alternating current signal, and receive signal measured across the cell layer. An alternating current signal of 1 V rms was generated at a specified frequency, connected to a 1 MΩ resistor to provide a 1 μA current. Cell-free devices were filled with culture medium and measurements taken over at least 12 hours to establish baseline impedance. The voltage drop across the device containing cells grown on electrodes was detected and measured by the LIA, which allows for small AC signals to be resolved in high noise systems. A cell-free baseline was established beforehand using cell-free devices filled with culture medium and impedance measurements taken over the course of at least 12 hours prior to cell seeding. LIA outputs including voltage drop and phase angle were used to calculate and plot impedance and resistance values.
Cells were incubated in 5 mM EGTA (Sigma-Aldrich, E3889) diluted in Endothelial Growth Medium at 37° C. and 5% CO2 for 2 hours, with ECIS measurements taken every 15 min. After 2 hours, EGTA was removed and replaced with fresh growth medium. For transient disruption of the endothelial barrier, cells were stimulated with 1 U/mL of thrombin from bovine plasma (Sigma-Aldrich, T6634) diluted in Endothelial Growth Medium at 37° C. and 5% CO2 for 2 hours, with measurements taken every 5 min.
To assess the effect of electrode size in PM-ECIS response to barrier disruption, a confluent monolayer of HUVECs was subjected to 2-hour treatment with EGTA. EGTA disrupts cell barriers by chelating Ca2+ ions to destabilize tight junctions. […]

HUVEC monolayers = experiment: PM-ECIS resistance of HUVEC monolayers on 6-well inserts after thrombin barrier disruption; type: cell-based, human; conditions: 1 U/mL thrombin in fresh media, HUVECs, 6-well PM-ECIS
Procedure: A lock-in amplifier (LIA) (SR850, Stanford Research Systems) was used to simultaneously generate AC current and read impedance data from the devices. An Arduino-operated multiplexer was used to switch between devices. Using a 1 V rms input voltage, in series with a 1 MΩ resistor, electrodes (typ. 500 μm dia.) were stimulated at frequencies of 400, 4000 and 40000 Hz, and any voltage drops (at the locked frequencies) across the electrodes were sampled with the LIA every 15 or 60 mins. Prior to use, the devices without cells were left in media for at least 12 hours to record a stable cell-free impedance baseline for each electrode at each frequency.
Cell barrier resistance (Rb), capacitance (Cm), and basal barrier beneath the cells (a) were modeled and calculated using ECIS Core software (Applied Biophysics, v1.2.215.0 PC) using the raw impedance values taken at 400, 4000, and 40000 Hz.

Compound | time to drop in resistance after treatment ([1]; 5 mM EGTA, 4 kHz) [min] | change in 4 kHz PM-ECIS resistance after addition of thrombin (HUVEC monolayers) | change in resistance after thrombin treatment ([1]; 1 U/mL thrombin, 4 kHz) | time for resistances to return to or close to pre-treatment values ([1]; 1 U/mL thrombin) [min]
O=C(O)CN(CCOCCOCCN(CC(=O)O)CC(=O)O)CC(=O)O [EGTA, ethylene glycol-bis(β-aminoethyl ether)-N,N,N′,N′-tetraacetic acid] | ≤ 15 | – | – | –
thrombin: thrombin from bovine plasma (Sigma), used to disrupt cell-cell junctions | – | acute resistance drop | immediate drop in resistance | ≤ 120
